These molecules were tested against BTK (Homo sapiens, UniProt Q06187) (assay: biochemical). Details: read-out: BTK inhibition (%).
Chain of BTK (Q06187 402-655 limits assumed): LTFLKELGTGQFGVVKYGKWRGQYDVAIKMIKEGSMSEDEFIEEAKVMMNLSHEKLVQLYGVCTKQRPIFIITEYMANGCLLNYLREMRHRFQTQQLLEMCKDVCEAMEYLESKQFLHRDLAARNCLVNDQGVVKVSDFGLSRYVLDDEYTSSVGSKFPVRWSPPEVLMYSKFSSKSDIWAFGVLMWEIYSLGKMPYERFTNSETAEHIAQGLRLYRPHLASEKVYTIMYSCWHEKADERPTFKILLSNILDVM
For `CC(C)(C)[C@]1(O)C[C@@H]2OC(=O)C[C@@]23C(=O)O[C@@H]2OC(=O)[C@H](O)[C@]213` [PCM-0094827], the inhibition at 10 µM was -6.2%. With `C[C@]12CCC(=O)C(O)=C1CC[C@@H]1[C@@H]2CC[C@]2(C)C(=O)CC[C@@H]12` [PCM-0214668] the inhibition at 10 µM was -1.4%. Work on `O=P1(NCCCl)OCCCN1CCCl` (stereo not shown) [PCM-0086467] yielded an inhibition at 10 µM of -10.3%. Work on `C=C1CC[C@H]2[C@@H](/C=C(/C)C(=O)[C@@]3(O)C[C@H](C)[C@H](O)[C@@H]3[C@H]1O)C2(C)C` [PCM-0216650] yielded an inhibition at 10 µM of -9.3%.

Same assay, conditions: read-out: BTK inhibition (%), 0.75 uM BTK, […] probe 3l, 15 min preincubation
For `CCCNC(C)C(=O)Nc1ccccc1C` (stereo not shown) [PCM-0065518], the inhibition at 10 µM was -16.3%. `C[C@@H]1CN(CC(=O)Nc2ccc3c(c2)Cc2cccc(-c4cc(=O)cc(N5CCOCC5)o4)c2S3)C[C@H](C)O1` [PCM-0095132] was tested, and the inhibition at 10 µM was 26.2%. Work on `O[C@@H](c1cc(C(F)(F)F)nc2c(C(F)(F)F)cccc12)[C@H]1CCCCN1` [PCM-0214801] yielded an inhibition at 10 µM of -4.7%. Molecule `O=C(Nc1cccc(C2=NCCN2)c1)Nc1cccc(C2=NCCN2)c1` [PCM-0216019] has an inhibition at 10 µM of -17%. `CC(C)(c1ccc(OCC(O)CO)cc1)c1ccc(OCC(O)CCl)cc1` (stereo not shown) [PCM-0215567] showed an inhibition at 10 µM of -2.3%. With `CNC(=O)[C@H](Cc1c[nH]c2ccccc12)NC(=O)[C@@H](CC(=O)NO)CC(C)C` [PCM-0095723] the inhibition at 10 µM was 19.3%. With `CO[C@H]1/C=C/O[C@@]2(C)Oc3c(C)c(O)c4c(O)c(c5c(c4c3C2=O)=NC2(CCN(CC(C)C)CC2)N=5)NC(=O)/C(C)=C\C=C\[C@H](C)[C@H](O)[C@@H](C)[C@@H](O)[C@@H](C)[C@H](OC(C)=O)[C@@H]1C` [PCM-0095185] the inhibition at 10 µM was 7%. `Cc1ccc(-n2sc(=O)n(Cc3ccc(F)cc3)c2=O)cc1` [PCM-0095367] showed an inhibition at 10 µM of -12.5%. Work on `NC(=O)c1ccc[n+]([C@@H]2O[C@H](COP(=O)([O-])O)[C@@H](O)[C@H]2O)c1` [PCM-0216232] yielded an inhibition at 10 µM of -6.8%. `O=C(/C=C/c1ccc(O)c2c1[C@H](C(=O)O)[C@@H](c1ccc(O)c(O)c1)O2)O[C@H](Cc1ccc(O)c(O)c1)C(=O)O` [PCM-0216504] showed an inhibition at 10 µM of 8.5%. Work on `CC(C(=O)O)c1ccc2c(c1)Cc1cccnc1O2` (stereo not shown) [PCM-0086477] yielded an inhibition at 10 µM of -11.7%. For `COC(=O)C1=CO[C@@H](O[C@@H]2O[C@H](CO)[C@@H](O)[C@H](O)[C@H]2O)[C@H]2[C@@H]1C(=O)C[C@@H]2C` [PCM-0216534], the inhibition at 10 µM was 6.9%. `O=[N+]([O-])c1ccc(Nc2nc(N3CCOCC3)nc(N3CCOCC3)n2)cc1` [PCM-0215468] was tested, and the inhibition at 10 µM was 0%. `CC[C@H](NC(=O)[C@H](C)NC)C(=O)N1C[C@@H](O)C[C@H]1Cc1c(-c2[nH]c3cc(F)ccc3c2C[C@@H]2C[C@H](O)CN2C(=O)[C@H](CC)NC(=O)[C@H](C)NC)[nH]c2cc(F)ccc12` [PCM-0214572] showed an inhibition at 10 µM of 5.4%. Work on `CCCCC[C@](C)(O)/C=C/[C@@H]1[C@@H](C/C=C\CCCC(=O)O)[C@@H](O)C[C@H]1O` [PCM-0216577] yielded an inhibition at 10 µM of -3.9%. `C=C[C@]1(C)C[C@@H](OC(=O)CSC2C[C@H]3CC[C@@H](C2)N3C)[C@]2(C)[C@H](C)CC[C@]3(CCC(=O)[C@H]32)[C@@H](C)[C@@H]1O` (stereo partly shown) [PCM-0095603] gave an inhibition at 10 µM of 3.9%. Work on `O=C(Nc1cc(Cl)cc(Cl)c1O)c1c(O)c(Cl)cc(Cl)c1Cl` [PCM-0215152] yielded an inhibition at 10 µM of 18.5%. `C[C@@H](NCCc1ccc(O)cc1)[C@@H](O)c1ccc(O)cc1` [PCM-0214689] showed an inhibition at 10 µM of 0%. `CN1C2=C3N=c4ccccc4=C3CCN2C(=O)c2ccccc21` [PCM-0214954] gave an inhibition at 10 µM of 7%. `CCOc1nc2cccc(C(=O)OC(C)OC(=O)OC3CCCCC3)c2n1Cc1ccc(-c2ccccc2-c2nn[nH]n2)cc1` (stereo not shown) [PCM-0090385] gave an inhibition at 10 µM of 53.7%. Molecule `C[C@]12CC[C@@H]3c4ccc(O)cc4CC[C@H]3[C@@H]1CC[C@@H]2O` [PCM-0214649] has an inhibition at 10 µM of 4.1%. `CC(=O)OCC1=C(C(=O)O)N2C(=O)[C@@H](NC(=O)CSC(=NC(C)C)NC(C)C)[C@H]2SC1` [PCM-0216063] was tested, and the inhibition at 10 µM was 4.7%. With `Clc1cccc(-c2nnnn2Cc2cccnc2)c1Cl` [PCM-0215469] the inhibition at 10 µM was -0.8%. `CCC[C@@H]1C[C@@H](C(=O)N[C@@H]([C@H]2O[C@H](SC)[C@H](O)[C@@H](O)[C@H]2O)[C@@H](C)O)N(C)C1` [PCM-0095227] showed an inhibition at 10 µM of -4.7%. With `CC(COc1ccccc1Cc1ccccc1)N1CCCCC1` (stereo not shown) [PCM-0216136] the inhibition at 10 µM was -17%. `CC(C)(C)C(=O)OCOP(=O)(COCCn1cnc2c(N)ncnc21)OCOC(=O)C(C)(C)C` [PCM-0095170] gave an inhibition at 10 µM of 3.9%. `CN(C)c1ccc2nc3c(C(=O)O)cc(=O)c(O)c-3oc2c1` [PCM-0216583] showed an inhibition at 10 µM of 88%. `CC(C)CCN1c2nc(Nc3cc(F)c(O)c(F)c3)ncc2N(C)C(=O)C1C` (stereo not shown) [PCM-0095469] was tested, and the inhibition at 10 µM was 48.3%. `Nc1nonc1C(=Nc1ccc(F)c(Cl)c1)NO` [PCM-0095795] gave an inhibition at 10 µM of -3.1%. Work on `COc1cc2c(cc1O)C[C@H]1c3cc(O)c(OC)cc3CC[N@@+]1(C)C2` [PCM-0216444] yielded an inhibition at 10 µM of -1.5%. Work on `O=C(Nc1ccc(Br)cc1)c1c(O)cccc1O` [PCM-0215136] yielded an inhibition at 10 µM of 3.9%. `C[C@H]1[C@H](C)CC[C@]2(C(=O)O)CC[C@]3(C)C(=CC[C@@H]4[C@@]5(C)CCC(=O)C(C)(C)[C@@H]5CC[C@]43C)[C@H]12` [PCM-0215048] gave an inhibition at 10 µM of 7%. For `Cc1cc(C)c(-c2csc(NC(=O)c3ccccc3)n2)c(C)c1` [PCM-0095756], the inhibition at 10 µM was 41.7%. `O=S(=O)(NCCSSCCNS(=O)(=O)c1cc(Cl)ccc1Cl)c1cc(Cl)ccc1Cl` [PCM-0215542] was tested, and the inhibition at 10 µM was 5.4%. Molecule `O=C(NCCO)c1cccc(-c2cc(Nc3ccc(OC(F)(F)F)cc3)ncn2)c1` [PCM-0213352] has an inhibition at 10 µM of -24.1%. Molecule `COc1ccccc1Oc1c(NS(=O)(=O)c2ccc(C(C)(C)C)cc2)nc(-c2ncccn2)nc1OCCO` [PCM-0086316] has an inhibition at 10 µM of -7.8%. `CN(CCN1CCC(OC(=O)Nc2ccccc2-c2ccccc2)CC1)C(=O)c1ccc(CN2CCC(C(N)=O)CC2)cc1` [PCM-0216137] showed an inhibition at 10 µM of -10%. For `C[C@H](C(=O)O)c1ccc(-c2ccccc2)c(F)c1` [PCM-0095117], the inhibition at 10 µM was -2.1%. `O=C(O)c1cccnc1` [PCM-0086368] showed an inhibition at 10 µM of 3.1%. Work on `C[C@@H]1O[C@@H](O[C@H]2[C@H](O[C@H]3CC[C@@]4(C)[C@@H](CC[C@]5(C)[C@@H]4CC=C4[C@@H]6CC(C)(C)CC[C@]6(C(=O)O)CC[C@]45C)[C@]3(C)CO)OC[C@H](O)[C@@H]2O)[C@H](O)[C@H](O)[C@H]1O` [PCM-0214969] yielded an inhibition at 10 µM of -10.9%. Work on `CC(C)(C)c1cc(C(C)(C)C)c(NC(=O)c2c[nH]c3ccccc3c2=O)cc1O` [PCM-0094963] yielded an inhibition at 10 µM of 49.8%. Molecule `CNC(=O)c1cc(Oc2ccc(NC(=O)Nc3ccc(Cl)c(C(F)(F)F)c3)cc2)ccn1` [PCM-0094958] has an inhibition at 10 µM of 73.8%. For `C#C[C@]1(O)C=C[C@H]2[C@@H]3CCC4=CC(=O)CC[C@@H]4[C@H]3CC[C@@]21CC` [PCM-0214616], the inhibition at 10 µM was 3.1%. For `O=C(O)c1ccc(O)cc1` [PCM-0214982], the inhibition at 10 µM was -10.9%. `CCC(=O)O[C@]1(C(=O)CCl)[C@@H](C)C[C@H]2[C@@H]3C[C@H](F)C4=CC(=O)C=C[C@]4(C)[C@@]3(F)[C@@H](O)C[C@@]21C` [PCM-0214768] was tested, and the inhibition at 10 µM was 22.8%. With `CC[C@@H](C(N)=O)N1CCCC1=O` [PCM-0064838] the inhibition at 10 µM was 15.6%. `CO[C@H]1C[C@@H]2CC[C@@H](C)[C@@](O)(O2)C(=O)C(=O)N2CCCC[C@H]2C(=O)O[C@H]([C@H](C)C[C@@H]2CC[C@@H](OP(C)(C)=O)[C@H](OC)C2)CC(=O)[C@H](C)/C=C(\C)[C@@H](O)[C@@H](OC)C(=O)[C@H](C)C[C@H](C)/C=C/C=C/C=C/1C` [PCM-0214600] was tested, and the inhibition at 10 µM was -16.6%. With `CC(=O)Nc1nc2c(Oc3cc(-c4ccc(C(F)(F)F)cc4)ncn3)cccc2s1` [PCM-0095587] the inhibition at 10 µM was 10.8%. `Cn1nc(C(C)(C)C)cc1C(=O)N[C@@H](Cc1cccc(Cl)c1)C(=O)NCC#N` [PCM-0095472] was tested, and the inhibition at 10 µM was -18.7%. Work on `CCC[C@H](NC(=O)/C(C#N)=C/c1cccc(Br)n1)c1ccccc1` [PCM-0095282] yielded an inhibition at 10 µM of 24.8%. Work on `C=CC(=O)N1CC[C@@H](Oc2nc(Nc3ccc(N4CCC(N5CCN(C)CC5)CC4)cc3)c(C(N)=O)nc2CC)C1` [PCM-0215788] yielded an inhibition at 10 µM of 91%. `COc1ccc(C(NC(=O)c2cnc(-c3cccnn3)[nH]c2=O)c2ccc(OC)cc2)cc1` [PCM-0215803] was tested, and the inhibition at 10 µM was 18.5%. Molecule `O=C(c1ccccc1)c1ccc2nc(NC(=O)c3csc(C4CCN(c5ncnc6ccsc56)CC4)n3)[nH]c2c1` [PCM-0095775] has an inhibition at 10 µM of 20.1%. `O=C(O)CCNc1cc(N2CCc3ccccc3CC2)nc(-c2ccccn2)n1` [PCM-0215478] gave an inhibition at 10 µM of -3.1%. With `O=C1CCC[C@@H]2[C@H]3CCC[N@+]4([O-])CCC[C@@H](CN12)[C@@H]34` [PCM-0094874] the inhibition at 10 µM was -8.6%. For `CCN(C)S(=O)(=O)Nc1ccc(F)c(C(=O)c2c[nH]c3ncc(-c4cnc(C5CC5)nc4)cc23)c1F` [PCM-0215639], the inhibition at 10 µM was 75.9%. In the case of `Cc1ccc(CNc2ncnc3ccc(-c4ccc(CO)o4)cc23)o1` [PCM-0215296], the inhibition at 10 µM is reported as 6.9%. `COc1cc(C=O)cc(OC)c1O` [PCM-0215069] was tested, and the inhibition at 10 µM was -33.5%. In the case of `OCCN(CCO)c1nc(N2CCCCC2)c2nc(N(CCO)CCO)nc(N3CCCCC3)c2n1` [PCM-0065264], the inhibition at 10 µM is reported as 10.9%. With `CCCCc1nc(C)c(CC(=S)N(C)C)c(=O)n1Cc1ccc(-c2ccccc2-c2nn[nH]n2)cc1` [PCM-0215150] the inhibition at 10 µM was -6.2%. With `Cc1cc(Nc2nc(N[C@@H](C)c3ccc(F)cc3)c(C#N)cc2F)n[nH]1` [PCM-0095250] the inhibition at 10 µM was 99.3%. Work on `O=C(O)C(O)C(O)C(=O)O` (stereo not shown) [PCM-0215711] yielded an inhibition at 10 µM of -0.9%. `COCCNC(=O)Nc1ccc2nc(-c3cccs3)c(-c3cccs3)nc2c1` [PCM-0215879] was tested, and the inhibition at 10 µM was 6.9%. `C[C@@H]1O[C@@H](O[C@H]2[C@H](O[C@H]3CC[C@@]4(C)[C@@H](CC[C@]5(C)[C@@H]4CC=C4[C@@H]6CC(C)(C)CC[C@]6(C(=O)O)CC[C@]45C)[C@]3(C)CO)OC[C@H](O[C@@H]3O[C@H](CO)[C@@H](O)[C@H](O)[C@H]3O)[C@@H]2O)[C@H](O)[C@H](O)[C@H]1O` [PCM-0216539] gave an inhibition at 10 µM of 52.5%. `O=C1CN(/N=C/C=C/c2ccc([N+](=O)[O-])o2)C(=O)N1` [PCM-0214924] was tested, and the inhibition at 10 µM was -7.8%. `Cc1nn(C)c2c1C(c1ccc(C(F)(F)F)cc1)C(C#N)=C(N)O2` (stereo not shown) [PCM-0215442] showed an inhibition at 10 µM of -6.9%.
